From patent publication US8053574B2, “Organic compounds” (Novartis AG, priority 2007, dated 2011)

The compounds below were run against PI3K γ (Homo sapiens, UniProt P48736) (assay: PI3 kinase phosphorylation assay (Biological Method 1), Ki γ). Details: Table 1, compounds of formula X.
Assay type: biochemical
Procedure: The compounds of the invention were synthesized according to the examples provided above. PI3K inhibitory (IC50) values of the compounds were determined according to Biological Method 1.
Assay 1: Homogenous Solution Phase Assay
Compounds to be tested are dissolved in DMSO and directly distributed into 384-well flashplates at 1.25 μL per well. To start the reaction, 20 μL of 6 nM PI3 kinase are added into each well followed by 20 μL of 400 nM ATP containing a trace of radiolabeled ATP and 900 nM 1-alpha-phosphatidylinositol (PI). The plates are briefly centrifuged to remove any air gap. The reaction is performed for 15 minutes and then stopped by the addition of 20 μL of 100 mM EDTA. The stopped reaction is incubated overnight at RT to allow the lipid substrate to bind by hydrophobic interaction to the surface of the flashplate. The liquid in the wells is then washed away, and the labeled substrate is detected with scintillation counting.
Assay 2: One Step Solid Phase Assay
This method is similar to Assay 1 except that the lipid substrate (1-alpha-phosphatidylinositol (PI)) is first dissolved in a coating buffer and incubated on flashplate at room temperature overnight to allow the lipid substrate to bind by hydrophobic interaction to the surface of the flashplate. Unbound substrate is then washed away. On the day of assay, 20 μL of 6 nM PI3 kinase are added into each well followed by 20 μL of 400 nM ATP containing trace of radiolabeled ATP. Compounds are added together with enzyme and ATP to the lipid-coated plates. The plates are briefly centrifuged to remove any air gap. The reaction is performed for two to three hours. The reaction is stopped by addition of 20 μL of 100 mM EDTA or by immediate plate washing. Phosphorylated lipid substrate is detected by scintillation counting.
Assay 3: ATP Depletion Assay
Compounds to be tested are dissolved in DMSO and directly distributed into a black 384-well plate at 1.25 μL per well. To start the reaction, 25 μL of 10 nM PI3 kinase and 5 μg/mL 1-alpha-phosphatidylinositol (PI) are added into each well followed by 25 μL of 2 μM ATP. The reaction is performed until approx 50% of the ATP is depleted, and then stopped by the addition of 25 μL of KinaseGlo solution. The stopped reaction is incubated for 5 minutes and the remaining ATP is then detected via luminescence.

Sequence of PI3K γ (P48736 whole entry): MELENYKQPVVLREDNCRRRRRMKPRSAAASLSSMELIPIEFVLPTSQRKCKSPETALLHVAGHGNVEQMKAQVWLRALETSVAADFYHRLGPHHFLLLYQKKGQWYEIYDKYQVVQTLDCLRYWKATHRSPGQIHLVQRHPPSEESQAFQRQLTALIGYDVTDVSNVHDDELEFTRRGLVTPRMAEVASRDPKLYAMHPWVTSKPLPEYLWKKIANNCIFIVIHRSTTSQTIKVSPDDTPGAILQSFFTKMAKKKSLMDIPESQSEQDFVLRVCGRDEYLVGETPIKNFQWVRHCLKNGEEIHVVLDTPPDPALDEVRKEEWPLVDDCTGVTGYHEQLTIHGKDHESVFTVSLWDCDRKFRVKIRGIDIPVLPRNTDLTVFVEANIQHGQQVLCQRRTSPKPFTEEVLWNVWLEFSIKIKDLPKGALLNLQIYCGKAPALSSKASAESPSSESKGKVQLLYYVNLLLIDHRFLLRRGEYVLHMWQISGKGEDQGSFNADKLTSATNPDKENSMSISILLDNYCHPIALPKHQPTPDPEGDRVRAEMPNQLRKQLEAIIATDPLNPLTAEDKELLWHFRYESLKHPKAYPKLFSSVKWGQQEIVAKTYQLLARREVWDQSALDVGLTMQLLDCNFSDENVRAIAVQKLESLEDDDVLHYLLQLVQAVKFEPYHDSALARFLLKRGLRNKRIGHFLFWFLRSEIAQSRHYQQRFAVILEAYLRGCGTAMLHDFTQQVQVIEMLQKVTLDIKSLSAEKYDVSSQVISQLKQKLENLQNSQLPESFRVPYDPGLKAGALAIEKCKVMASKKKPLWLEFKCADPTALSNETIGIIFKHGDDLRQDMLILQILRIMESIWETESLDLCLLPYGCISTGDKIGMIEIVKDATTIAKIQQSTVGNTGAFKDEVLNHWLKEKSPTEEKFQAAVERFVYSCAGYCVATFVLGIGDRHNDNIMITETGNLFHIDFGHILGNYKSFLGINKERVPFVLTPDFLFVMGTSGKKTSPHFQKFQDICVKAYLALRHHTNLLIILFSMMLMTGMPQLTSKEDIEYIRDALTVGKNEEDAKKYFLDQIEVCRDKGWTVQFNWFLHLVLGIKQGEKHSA

**Q.** For O=C(NCCc1nnn(CCF)n1)Nc1cn2cc(-c3cncc(C(F)(F)F)c3)ccc2n1 [drawing 83], which Ki is on record?
**A.** Its Ki is 0.002 µM.

**Q.** CCc1nnn(CCNC(=O)Nc2cn3cc(-c4cncc(C(F)(F)F)c4)ccc3n2)n1 [drawing 63] was tested. Which Ki did it give?
**A.** Its Ki is 0.026 µM.

**Q.** With CC(C)n1nnc(CCNC(=O)Nc2cn3cc(-c4cncc(Cl)c4)ccc3n2)n1 [drawing 37] as the compound, how does the Ki read?
**A.** Its Ki is 0.05 µM.

**Q.** With CCn1nnc(CCNC(=O)Nc2cn3cc(-c4cc(Cl)cc(OC)c4)ccc3n2)n1 as the compound, how does the Ki read?
**A.** Its Ki is 0.204 µM.

**Q.** How did the Ki turn out when CC(C)n1nnc(CCNC(=O)Nc2cn3cc(-c4cccc(F)c4)ccc3n2)n1 [drawing 69] was run?
**A.** Its Ki is 0.836 µM.

**Q.** COc1ccc(-c2ccc3nc(NC(=O)NCCc4nnn(CCF)n4)cn3c2)cn1 [drawing 53] was tested. Which Ki did it give?
**A.** Its Ki is 0.075 µM.

**Q.** Which Ki does the source give for CC(C)n1nnc(CCNC(=O)Nc2cn3cc(-c4cncc(OC5CCOCC5)c4)ccc3n2)n1 [drawing 39] here?
**A.** Its Ki is 0.147 µM.

**Q.** Which Ki does the source give for O=C(NCCn1nnc(C2CC2)n1)Nc1cn2cc(-c3cncc(C(F)(F)F)c3)ccc2n1 [drawing 67] here?
**A.** Its Ki is 0.028 µM.

**Q.** With CCn1nnc(CCNC(=O)Nc2cn3cc(-c4cncc5ccccc45)ccc3n2)n1 [drawing 97] as the compound, how does the Ki read?
**A.** The Ki was 0.158 µM.

**Q.** How did the Ki turn out when CC(C)n1nnc(CCNC(=O)Nc2cn3cc(-c4cncc(-c5ccccc5)c4)ccc3n2)n1 [drawing 45] was run?
**A.** The Ki was 0.24 µM.

**Q.** With Cc1ccc(-c2ccc3nc(NC(=O)NCCc4nnn(C(C)C)n4)cn3c2)cn1 [drawing 61] as the compound, how does the Ki read?
**A.** Its Ki is 0.113 µM.

**Q.** CCc1cncc(-c2ccc3nc(NC(=O)NCCc4nnn(C(C)C)n4)cn3c2)c1 [drawing 57] was tested. Which Ki did it give?
**A.** The Ki was 0.025 µM.

**Q.** Which Ki does the source give for CC(C)n1nnc(CCNC(=O)Nc2cn3cc(-c4cncc(C(F)(F)F)c4)ccc3n2)n1 [drawing 27] here?
**A.** Its Ki is 0.018 µM.

**Q.** How did the Ki turn out when CC(C)n1nnc(CCNC(=O)Nc2cn3cc(-c4cncnc4)ccc3n2)n1 [drawing 21] was run?
**A.** Its Ki is 0.165 µM.

**Q.** With CCn1nnc(CCNC(=O)Nc2cn3cc(-c4cncc(C(F)(F)F)c4)ccc3n2)n1 [drawing 81] as the compound, how does the Ki read?
**A.** Its Ki is 0.007 µM.

Same assay, conditions: Table 2, compounds of formula X

**Q.** Which Ki does the source give for CCn1nnc(CCNC(=O)Nc2cn3cc(-c4cncc(C(F)(F)F)c4)ccc3n2)n1 [Example 1-34, 1-[2-(2-Ethyl-2H-tetrazol-5-yl)-ethyl]-3-[6-(5-trifluoromethyl-pyridin-3-yl)-imidazo[1,2-a]pyridin-2-yl]-urea] here?
**A.** The Ki was 0.007 µM.

**Q.** For CCn1nnc(CCNC(=O)Nc2cn3cc(-c4cncc5ccccc45)ccc3n2)n1 [Example 1-42, 1-[2-(2-Ethyl-2H-tetrazol-5-yl)-ethyl]-3-(6-isoquinolin-4-yl-imidazo[1,2-a]pyridin-2-yl)-urea], which Ki is on record?
**A.** Its Ki is 0.158 µM.

**Q.** With CCc1cncc(-c2ccc3nc(NC(=O)NCCc4nnn(C(C)C)n4)cn3c2)c1 [Example 1-22, 1-[6-(5-Ethyl-pyridin-3-yl)-imidazo[1,2-a]pyridin-2-yl]-3-[2-(2-isopropyl-2H-tetrazol-5-yl)-ethyl]-urea] as the compound, how does the Ki read?
**A.** The Ki was 0.025 µM.

**Q.** How did the Ki turn out when CC(C)n1nnc(CCNC(=O)Nc2cn3cc(-c4cncc(C(F)(F)F)c4)ccc3n2)n1 [Example 1-7, 1-[2-(2-Isopropyl-2H-tetrazol-5-yl)-ethyl]-3-[6-(5-trifluoromethyl-pyridin-3-yl)-imidazo[1,2-a]pyridin-2-yl]-urea] was run?
**A.** Its Ki is 0.018 µM.

**Q.** Which Ki does the source give for CCn1cnc(CCNC(=O)Nc2cn3cc(-c4cncc(C(F)(F)F)c4)ccc3n2)c1 [Example 1-23, 1-[2-(1-Ethyl-1H-imidazol-4-yl)-ethyl]-3-[6-(5-trifluoromethyl-pyridin-3-yl)-imidazo[1,2-a]pyridin-2-yl]-urea] here?
**A.** The Ki was 0.028 µM.

**Q.** CC(C)n1nnc(CCNC(=O)Nc2cn3cc(-c4ccccc4)ccc3n2)n1 [Example 1-31, 1-[2-(2-Isopropyl-2H-tetrazol-5-yl)-ethyl]-3-(6-phenyl-imidazo[1,2-a]pyridin-2-yl)-urea] was tested. Which Ki did it give?
**A.** The Ki was 0.423 µM.

**Q.** Which Ki does the source give for CC(C)n1nnc(CCNC(=O)Nc2cn3cc(-c4cncc(OC5CCOCC5)c4)ccc3n2)n1 [Example 1-13, 1-[2-(2-Isopropyl-2H-tetrazol-5-yl)-ethyl]-3-{6-[5-(tetrahydro-pyran-4-yloxy)-pyridin-3-yl}-imidazo[1,2-a]pyridin-2-yl]-urea] here?
**A.** The Ki was 0.147 µM.

**Q.** For CC(=O)c1cncc(-c2ccc3nc(NC(=O)NCCc4nnn(C(C)C)n4)cn3c2)c1 [Example 1-43, 1-[6-(5-Acetyl-pyridin-3-yl)-imidazo[1,2-a]pyridin-2-yl]-3-[2-(2-isopropyl-2H-tetrazol-5-yl)-ethyl]urea], which Ki is on record?
**A.** Its Ki is 0.008 µM.

**Q.** For CC(C)(C)NC(=O)CCNC(=O)Nc1cn2cc(-c3cncc(-c4ccccc4)c3)ccc2n1 [Example 1-15, N-tert-Butyl-3-{3-[6-(5-phenyl-pyridin-3-yl)-imidazo[1,2-a]pyridin-2-yl]ureido}-propionamide], which Ki is on record?
**A.** Its Ki is 0.207 µM.

**Q.** With COc1ccc(-c2ccc3nc(NC(=O)NCCc4nnn(C(C)C)n4)cn3c2)cn1 [Example 1-19, 1-[2-(2-Isopropyl-2H-tetrazol-5-yl)-ethyl]-3-[6-(6-methoxy-pyridin-3-yl)-imidazo[1,2-a]pyridin-2-yl]-urea] as the compound, how does the Ki read?
**A.** The Ki was 0.301 µM.

**Q.** For CCn1nnc(CCNC(=O)Nc2cn3cc(-c4cnc5ccccc5c4)ccc3n2)n1 [Example 1-30, 1-[2-(2-Ethyl-2H-tetrazol-5-yl)-ethyl]-3-(6-quinolin-3-yl-imidazo[1,2-a]pyridin-2-yl)-urea], which Ki is on record?
**A.** The Ki was 0.57 µM.

**Q.** How did the Ki turn out when O=C(NCCc1nnn(CCF)n1)Nc1cn2cc(-c3cncc(C(F)(F)F)c3)ccc2n1 [Example 1-35, 1-{2-[2-(2-Fluoro-ethyl)-2H-tetrazol-5-yl]-ethyl}-3-[6-(5-trifluoromethyl-pyridin-3-yl)-imidazo[1,2-a]pyridin-2-yl]-urea] was run?
**A.** The Ki was 0.002 µM.

**Q.** With CC(C)n1nnc(CCNC(=O)Nc2cn3cc(-c4cncc(-c5ccccc5)c4)ccc3n2)n1 [Example 1-16, 1-[2-(2-Isopropyl-2H-tetrazol-5-yl)-ethyl]-3-[6-(5-phenyl-pyridin-3-yl)-imidazo[1,2-a]pyridin-2-yl]urea] as the compound, how does the Ki read?
**A.** The Ki was 0.24 µM.

**Q.** How did the Ki turn out when CCc1nnn(CCNC(=O)Nc2cn3cc(-c4cncc(C(F)(F)F)c4)ccc3n2)n1 [Example 1-25, 1-[2-(5-Ethyl-tetrazol-2-yl)-ethyl]-3-[6-(5-trifluoromethyl-pyridin-3-yl)-imidazo[1,2-a]pyridin-2-yl]urea] was run?
**A.** Its Ki is 0.026 µM.

**Q.** How did the Ki turn out when Cc1ccccc1-c1cncc(-c2ccc3nc(NC(=O)NCCc4nnn(C(C)C)n4)cn3c2)c1 [Example 1-39, 1-[2-(2-Isopropyl-2H-tetrazol-5-yl)-ethyl]-3-[6-(5-o-tolyl-pyridin-3-yl)-imidazo[1,2-a]pyridin-2-yl]urea] was run?
**A.** The Ki was 1.12 µM.

Same assay, conditions: Table 3, compounds of formula XI

**Q.** O=C(NCCc1nnn(CCF)n1)Nc1nc2ccc(-c3cccnc3)cc2s1 [Example 2-1, 1-{2-[2-(2-Fluoro-ethyl)-2H-tetrazol-5-yl]-ethyl}-3-(6-pyridin-3-yl-benzothiazol-2-yl)-urea] was tested. Which Ki did it give?
**A.** The Ki was 0.008 µM.

**Q.** CCNC(=O)Nc1nc2ccc(-c3ccc(OC)nc3)cc2s1 [Example 2-6, 1-Ethyl-3-[6-(6-methoxy-pyridin-3-yl)-benzothiazol-2-yl]urea] was tested. Which Ki did it give?
**A.** Its Ki is 0.406 µM.

**Q.** For CC(C)n1nnc(CCNC(=O)Nc2nc3ccc(-c4cncc(C(F)(F)F)c4)cc3s2)n1 [Example 2-10, 1-[2-(2-Isopropyl-2H-tetrazol-5-yl)-ethyl]-3-[6-(5-trifluoromethyl-pyridin-3-yl)-benzothiazol-2-yl]urea], which Ki is on record?
**A.** Its Ki is 0.092 µM.

**Q.** COc1ccc(-c2ccc3nc(NC(=O)NCCc4nnn(CCF)n4)sc3c2)cn1 [Example 2-2, 1-{2-[2-(2-Fluoro-ethyl)-2H-tetrazol-5-yl]-ethyl}-3-[6-(6-methoxy-pyridin-3-yl)-benzothiazol-2-yl]-urea] was tested. Which Ki did it give?
**A.** The Ki was 0.02 µM.

**Q.** How did the Ki turn out when COc1ccc(-c2ccc3nc(NC(=O)NCc4cccnc4)sc3c2)cn1 [Example 2-5, 1-[6-(6-Methoxy-pyridin-3-yl)-benzothiazol-2-yl]-3-pyridin-3-ylmethyl-urea] was run?
**A.** Its Ki is 0.149 µM.

Same assay, conditions: Table 4

**Q.** With CCn1nnc(CCNC(=O)Nc2cn3nc(-c4cncc(C#N)c4)ccc3n2)n1 [Example 3-2, 1-[6-(5-Cyano-pyridin-3-yl)-imidazo[1,2-b]pyridazin-2-yl]-3-[2-(2-ethyl-2H-tetrazol-5-yl)-ethyl]-urea] as the compound, how does the Ki read?
**A.** The Ki was 0.031 µM.

**Q.** CCn1nnc(CCNC(=O)Nc2cn3cc(-c4cncc(C#N)c4)ncc3n2)n1 [Example 3-5, 1-[6-(5-Cyano-pyridin-3-yl)-imidazo[1,2-a]pyrazin-2-yl]-3-[2-(2-ethyl-2H-tetrazol-5-yl)-ethyl]-urea] was tested. Which Ki did it give?
**A.** Its Ki is 0.098 µM.

**Q.** With CCn1nnc(CCNC(=O)Nc2cn3nc(-c4cccnc4)ccc3n2)n1 [Example 3-3, 1-[6-(pyridin-3-yl)-imidazo[1,2-b]pyridazin-2-yl]-3-[2-(2-ethyl-2H-tetrazol-5-yl)-ethyl]-urea] as the compound, how does the Ki read?
**A.** The Ki was 0.031 µM.

**Q.** How did the Ki turn out when CCn1nnc(CCNC(=O)Nc2nc3cc(-c4cccnc4)ccn3n2)n1 [Example 3-15, 1-[2-(2-Ethyl-2H-tetrazol-5-yl)-ethyl]-3-(7-pyridin-3-yl-[1,2,4]triazolo[1,5-a]pyridin-2-yl)-urea] was run?
**A.** The Ki was 0.502 µM.

**Q.** For CCn1nnc(CCNC(=O)Nc2cn3nc(-c4cnccc4C)ccc3n2)n1 [Example 3-18, 1-[2-(2-Ethyl-2H-tetrazol-5-yl)-ethyl]-3-[6-(4-methyl-pyridin-3-yl)-imidazo[1,2-b]pyridazin-2-yl]-urea], which Ki is on record?
**A.** The Ki was 0.248 µM.
